Source: the NIST ThermoML archive (doi:10.1021/je0340248)

Assay: xn = mol fraction of the nth substance listed
Details: 101 kPa, Liquid

CC(=O)OCCC(C)C [3-methylbutyl ethanoate] + CC(O)CO
Details	mass density, 298.15 K [kg/m3]	mass density, 303.15 K [kg/m3]	mass density, 308.15 K [kg/m3]	mass density, 313.15 K [kg/m3]	speed of sound, 298.15 K [m/s]	speed of sound, 308.15 K [m/s]	viscosity, 298.15 K [mPa·s]	viscosity, 308.15 K [mPa·s]
x1 = 0.0455	1017.21	1013.29	1009.48	1005.69	1460	1425	31.61	18.4
x1 = 0.1457	988	983.78	979.64	976.02	1398	1369	16.42	10.43
x1 = 0.2483	963.53	959.11	954.73	951.27	1346	1320	8.962	6.168
x1 = 0.3508	943.13	938.57	934.01	930.68	1304	1281	5.224	3.864
x1 = 0.452	926.02	921.33	916.63	913.4	1270	1248	3.269	2.574
x1 = 0.4959	919.36	914.62	909.86	906.68	1258	1235	2.721	2.196
x1 = 0.5551	911.01	906.21	901.38	898.24	1243	1220	2.165	1.802
x1 = 0.6523	898.71	893.81	888.88	885.8	1223	1199	1.56	1.357
x1 = 0.7497	887.92	882.93	877.91	874.87	1211	1182	1.191	1.075
x1 = 0.8495	878.28	873.2	868.1	865.12	1202	1169	0.961	0.893
x1 = 0.9426	870.47	865.34	860.17	857.24	1197	1160	0.831	0.788

OCCOCCOCCO [triethylene glycol] + CCCCOC(C)=O
Details	mass density, 298.15 K [kg/m3]	mass density, 303.15 K [kg/m3]	mass density, 308.15 K [kg/m3]	mass density, 313.15 K [kg/m3]	speed of sound, 298.15 K [m/s]	speed of sound, 308.15 K [m/s]	viscosity, 298.15 K [mPa·s]	viscosity, 308.15 K [mPa·s]
x2 = 0.0452	1108.89	1105.14	1101.13	1098.6	1586	1559	31.2	18.96
x2 = 0.1515	1083.49	1079.63	1075.41	1072.59	1524	1498	24.06	14.16
x2 = 0.2488	1060.06	1056.08	1051.65	1048.53	1470	1446	18.29	10.62
x2 = 0.3493	1035.73	1031.63	1026.98	1023.57	1420	1395	13.28	7.731
x2 = 0.4464	1012.14	1007.94	1003.07	999.41	1375	1350	9.402	5.575
x2 = 0.4953	1000.24	995.98	991.02	987.24	1355	1329	7.798	4.694
x2 = 0.5495	987.03	982.72	977.64	973.75	1334	1307	6.273	3.856
x2 = 0.6493	962.66	958.25	952.97	948.88	1298	1267	4.084	2.642
x2 = 0.7488	938.29	933.77	928.31	924.03	1265	1232	2.566	1.776
x2 = 0.8515	913.02	908.37	902.74	898.24	1233	1197	1.528	1.153
x2 = 0.9421	890.6	885.8	880.04	875.29	1207	1168	0.936	0.774

OCCOCCO [diethylene glycol] + COC(C)=O
Details	mass density, 298.15 K [kg/m3]	mass density, 303.15 K [kg/m3]	mass density, 308.15 K [kg/m3]	mass density, 313.15 K [kg/m3]	speed of sound, 298.15 K [m/s]	speed of sound, 308.15 K [m/s]	viscosity, 298.15 K [mPa·s]	viscosity, 308.15 K [mPa·s]
x2 = 0.0406	1107.83	1103.83	1100.41	1097.07	1562	1533	26.42	14.2
x2 = 0.1512	1091.77	1087.47	1083.89	1080.13	1513	1485	18.27	8.812
x2 = 0.2516	1076.55	1071.84	1068.15	1063.99	1472	1441	12.72	5.78
x2 = 0.3488	1061.26	1056.15	1052.35	1047.79	1431	1398	8.747	3.883
x2 = 0.44	1046.36	1040.88	1036.96	1032.05	1392	1357	6.023	2.698
x2 = 0.4926	1037.46	1031.79	1027.79	1022.69	1370	1334	4.811	2.196
x2 = 0.5504	1027.35	1021.49	1017.4	1012.1	1345	1308	3.728	1.757
x2 = 0.6509	1008.76	1002.63	998.36	992.71	1301	1260	2.345	1.203
x2 = 0.751	988.53	982.17	977.74	971.76	1258	1213	1.44	0.834
x2 = 0.8504	966.18	959.59	955.04	948.73	1214	1168	0.866	0.586
x2 = 0.9429	942.76	935.89	931.35	924.7	1174	1127	0.527	0.426
